Data reported in patent US4735793A, “Carboxy, carboalkoxy and carbamile substituted isonitrile radionuclide complexes” (Massachusetts Institute of Technology, priority 1985, dated 1988).

Key:
[1] = rabbit, in vivo, iv
Description: (§2) Rabbits were anesthetized with Ketamine and Nembutal™ and positioned beneath a gamma camera to allow continuous collection of data including a chest and abdomen view. 1 mCi of the test agent as specified below was injected via an ear vein and data collected continuously at 60 second intervals for 60 minutes. Curves were generated by drawing regions of interest over selected tissues and normalizing to counts per minute per pixel.
The time of maximum activity in the liver post injection is "^t max", while "t1/2" is the apparent half life of the clearance curve from ^t max. The latter data is an estimate based on data collected to 60 minutes after administration. This assumes a simple exponential curve with time, although more extensive studies might indicate more components are actually present.

[2] = Scintigraphic images in animal and human tests; format: in vivo; conditions: for usefulness for imaging the heart: in vivo
Description: Scintigrapic Imaging Procedure in Animals
(§1) Two rabbits were anesthetized with sodium pentobarbital and injected via an ear vein with 3-8 mCi of ^99m Tc-isonitrile complex. One rabbit was imaged using a gamma camera equipped with a pinhole collimator positioned directly over the chest. Three minute static images were acquired at 5, 10, […], 40, 50 and 60 minutes post injection. A second rabbit was used to investigate the relative whole body distribution of activity for 60 minutes post-injection. Immediately post-injection, 300 thousand count images were acquired in the following sequence of projections: chest, anterior heart, whole body, anterior heart, left lateral whole body, anterior heart, lateral heart, anterior heart.
Swine were sedated with intramuscular injections of Ketamine and acepromazine, and anesthetized with sodium pentobarbital. The animals were positioned for anterior image acquisition over the chest under a low energy, high resolution collimator and injected with 10-12 mCi ^99m Tc-isonitrile complex via a leg vein. The liver was covered with a lead shield, and three minute images were acquired at 5, 10, 20, 30, 40, 50 and 60 minutes post-injection.
After anesthetization with sodium pentobarbital, dogs were injected with 25 mCi of ^99m Tc and positioned for anterior chest image acquisition using a pinhole collimator. Again, three minute images were obtained at 5, 10, 20, 30, 40, 50 and 60 minutes post-injection.

[3] = rabbit, in vivo
Description: as §2
The complexes were prepared, injected and imaged as described above.

[4] = Scintigraphic imaging of the heart in rabbits; format: in vivo, rabbit
Description: as §1
FIG. 6(a) is a scintigraphic image of a rabbit injected with a complex of ^99m Tc-carboethoxyisopropylisonitrile at 5 minutes after injection, while FIG. 6(b) is a scintigraphic image of the same rabbit at 15 minutes after injection. FIG. 7(a) is a scintigraphic image of a rabbit injected with a complex of ^99m Tc-2-carboethoxyethylisonitrile at 1, 10, 15 and 20 minutes post injection. FIG. 7 (b) is a scintigraphic image of a rabbit injected with the above complex at 31 minutes post-injection. The heart is at (A), the gall bladder at (B) and the site of injection at (C). The interpretation of these images is known to the person of ordinary skill in this field.

| Molecule | t1/2 (apparent half life of the liver clearance curve from tmax) [1] [min] | tmax (time of maximum activity in the liver post injection) [1] [min] | lung clearance [3] | usefulness for imaging the heart [2] | resolution of the apex of the heart ([4]; by 20 minutes after injection, after liver clearance) | resolution of the myocardium ([4]; five minutes after injection) | visualization of the apex of the heart ([4]; initially, background noise from liver uptake) | image quality ([2]; animal and human tests) |
| --- | --- | --- | --- | --- | --- | --- | --- | --- |
| [C-]#[N+]C(C)C [CNC(CH3)2 R, R = --H, isopropylisonitrile, reference compound] | 98 | 5 |  |  |  |  |  |  |
| [C-]#[N+]C [CNCH2 R, R = --H, methyl isonitrile, reference compound] | 88 | 14 |  |  |  |  |  |  |
| Hexakis carbomethoxymethylisonitrile Technetium Cation [CNCH2 R, R = --COOCH3] | 37 | 1 |  |  |  |  |  |  |
| ^99m TC-hexakis carbo-t-butoxymethylisonitrile technetium [CNCH2 R, R = --COO^t C4 H9] | 25 | 5 |  |  |  |  |  |  |

Continued, in another order:

| t1/2 (apparent half life of the liver clearance curve from tmax) [1] [min] | tmax (time of maximum activity in the liver post injection) [1] [min] | lung clearance [3] | Molecule | usefulness for imaging the heart [2] | resolution of the apex of the heart ([4]; by 20 minutes after injection, after liver clearance) | resolution of the myocardium ([4]; five minutes after injection) | visualization of the apex of the heart ([4]; initially, background noise from liver uptake) | image quality ([2]; animal and human tests) |
| --- | --- | --- | --- | --- | --- | --- | --- | --- |
| 270 | 2 |  | [C-]#[N+]CC [CNCH(R)CH3, R = --H, ethyl isonitrile, reference compound] |  |  |  |  |  |
| 35 | 3 | rapid lung clearance | ^99m Tc-Hexakis-1-carbomethoxyisopropylisonitrile Technetium (I) [CNC(CH3)2 R, R = --COOCH3] | particularly useful for imaging the heart | excellent resolution of the apex | very good to excellent resolution of the myocardium | initially prevents clear visualization of the apex of the heart |  |
| 17 | 2 |  | ^99m Tc-Hexakis-2-carboethoxyethylisonitrile Technetium (I) [CNCH2 CH2 R, R = --COOC2 H5] | particularly useful for imaging the heart |  |  |  | excellent images in both animal and human tests |
